The CheMixHub ionic liquid set

Assay: xn = mol fraction of the nth substance listed

CCCCCC[n+]1ccn(C)c1.N#C[S-] + [Br-].[Li+] + CN1CCCC1=O
298.15 K, 101 kPa
Settings	viscosity [mPa·s]
x1 = 0.001485, x2 = 0.05195	3.247
x1 = 0.00149, x2 = 0.02731	2.398
x1 = 0.001549, x2 = 0.07614	4.405
x1 = 0.003034, x2 = 0.02727	2.411
x1 = 0.003327, x2 = 0.07601	4.433
x1 = 0.003386, x2 = 0.05185	3.276
x1 = 0.004842, x2 = 0.05177	3.304
x1 = 0.004935, x2 = 0.02722	2.44
x1 = 0.004954, x2 = 0.07588	4.462
x1 = 0.005883, x2 = 0.02719	2.46
x1 = 0.006254, x2 = 0.0517	3.332
x1 = 0.006429, x2 = 0.07577	4.49
x1 = 0.007608, x2 = 0.02715	2.485
x1 = 0.007678, x2 = 0.07567	4.518
x1 = 0.007769, x2 = 0.05162	3.36
x1 = 0.009204, x2 = 0.07556	4.575
x1 = 0.009231, x2 = 0.05154	3.388
x1 = 0.009463, x2 = 0.0271	2.489
x1 = 0.009859, x2 = 0.05151	3.416
x1 = 0.01038, x2 = 0.02707	2.534
x1 = 0.01063, x2 = 0.07545	4.603
x1 = 0.01211, x2 = 0.02702	2.541
x1 = 0.01221, x2 = 0.07533	4.631
x1 = 0.01242, x2 = 0.05138	3.444

CCCCCCCCn1cc[n+](C)c1.N#C[S-] + [Cl-].[Li+] + CN1CCCC1=O
298.15 K, 101 kPa
Settings	viscosity [mPa·s]
x1 = 0.001139, x2 = 0.07166	3.748
x1 = 0.001259, x2 = 0.03751	2.694
x1 = 0.001303, x2 = 0.1042	5.098
x1 = 0.002343, x2 = 0.1041	5.122
x1 = 0.002465, x2 = 0.07157	3.763
x1 = 0.002516, x2 = 0.03747	2.708
x1 = 0.00365, x2 = 0.104	5.151
x1 = 0.003672, x2 = 0.03742	2.735
x1 = 0.003977, x2 = 0.07146	3.796
x1 = 0.004888, x2 = 0.1039	5.175
x1 = 0.005019, x2 = 0.03737	2.761
x1 = 0.005107, x2 = 0.07138	3.83
x1 = 0.00605, x2 = 0.1038	5.201
x1 = 0.006235, x2 = 0.0713	3.857
x1 = 0.006361, x2 = 0.03732	2.789
x1 = 0.007163, x2 = 0.1036	5.219
x1 = 0.00736, x2 = 0.07122	3.892
x1 = 0.007605, x2 = 0.03728	2.811
x1 = 0.00842, x2 = 0.1035	5.236
x1 = 0.00867, x2 = 0.07112	3.932
x1 = 0.008845, x2 = 0.03723	2.84
x1 = 0.009774, x2 = 0.1034	5.256
x1 = 0.009789, x2 = 0.07104	3.97
x1 = 0.01008, x2 = 0.03718	2.854

CCCCCC[n+]1ccn(C)c1.N#C[S-] + [Cl-].[Li+] + CN1CCCC1=O
298.15 K, 101 kPa
Settings	viscosity [mPa·s]
x1 = 0.001304, x2 = 0.1036	5.036
x1 = 0.001343, x2 = 0.0415	2.652
x1 = 0.001443, x2 = 0.07122	3.694
x1 = 0.002891, x2 = 0.1035	5.064
x1 = 0.002967, x2 = 0.07111	3.723
x1 = 0.00301, x2 = 0.04143	2.691
x1 = 0.004262, x2 = 0.1033	5.092
x1 = 0.004468, x2 = 0.071	3.75
x1 = 0.004767, x2 = 0.04136	2.745
x1 = 0.00607, x2 = 0.1032	5.12
x1 = 0.006095, x2 = 0.07088	3.806
x1 = 0.00649, x2 = 0.04129	2.765
x1 = 0.007465, x2 = 0.07079	3.848
x1 = 0.007616, x2 = 0.04124	2.776
x1 = 0.007643, x2 = 0.103	5.148
x1 = 0.008578, x2 = 0.07071	3.887
x1 = 0.008753, x2 = 0.1029	5.176
x1 = 0.009233, x2 = 0.04117	2.794
x1 = 0.01021, x2 = 0.1027	5.204
x1 = 0.0105, x2 = 0.04112	2.823
x1 = 0.0108, x2 = 0.07055	3.923
x1 = 0.01107, x2 = 0.1026	5.231
x1 = 0.01163, x2 = 0.04107	2.837
x1 = 0.01204, x2 = 0.07046	3.961

CCCCCCCCCCCC[N+](C)(C)C.[Br-] + [Cl-].[Na+] + O
298.15 K, 101 kPa
Settings	electrical conductivity [S/m]
x1 = 2.89e-06, x2 = 0.001799	0.8786
x1 = 4.51e-06, x2 = 0.0001802	0.1179
x1 = 7.42e-06, x2 = 0.001799	0.8778
x1 = 9.37e-06, x2 = 0.0001802	0.1201
x1 = 1.357e-05, x2 = 0.001799	0.878
x1 = 1.406e-05, x2 = 0.0001802	0.1223
x1 = 2.037e-05, x2 = 0.0001802	0.1252
x1 = 2.28e-05, x2 = 0.001799	0.8786
x1 = 2.92e-05, x2 = 0.0001802	0.1294
x1 = 3.184e-05, x2 = 0.001799	0.8802
x1 = 4.038e-05, x2 = 0.0001802	0.1348
x1 = 4.071e-05, x2 = 0.001799	0.8816
x1 = 4.957e-05, x2 = 0.001799	0.8831
x1 = 5.047e-05, x2 = 0.0001802	0.1397
x1 = 5.536e-05, x2 = 0.001799	0.8846
x1 = 6.115e-05, x2 = 0.001799	0.8858
x1 = 6.183e-05, x2 = 0.0001802	0.1451
x1 = 6.694e-05, x2 = 0.001799	0.8876
x1 = 7.273e-05, x2 = 0.001799	0.8895
x1 = 7.319e-05, x2 = 0.0001801	0.1504
x1 = 7.87e-05, x2 = 0.001799	0.8913
x1 = 8.4e-05, x2 = 0.0001801	0.1556
x1 = 8.467e-05, x2 = 0.001799	0.893
x1 = 9.064e-05, x2 = 0.001799	0.8946
x1 = 9.481e-05, x2 = 0.0001801	0.1607
x1 = 9.642e-05, x2 = 0.001799	0.8963
x1 = 0.000102, x2 = 0.001799	0.8978
x1 = 0.0001071, x2 = 0.0001801	0.1667
x1 = 0.0001078, x2 = 0.001799	0.8993
x1 = 0.0001134, x2 = 0.001799	0.9008
x1 = 0.0001199, x2 = 0.0001801	0.1727
x1 = 0.0001219, x2 = 0.001799	0.9032
x1 = 0.0001275, x2 = 0.001799	0.9048
x1 = 0.0001309, x2 = 0.0001801	0.1778
x1 = 0.0001331, x2 = 0.001799	0.9066
x1 = 0.0001415, x2 = 0.001798	0.9086
x1 = 0.0001435, x2 = 0.0001801	0.1838
x1 = 0.0001498, x2 = 0.001798	0.9101
x1 = 0.0001548, x2 = 0.0001801	0.1892
x1 = 0.0001554, x2 = 0.001798	0.9111
x1 = 0.000161, x2 = 0.001798	0.9122
x1 = 0.0001673, x2 = 0.0001801	0.1949
x1 = 0.0001693, x2 = 0.001798	0.9132
x1 = 0.0001776, x2 = 0.001798	0.9143
x1 = 0.0001793, x2 = 0.0001801	0.2005
x1 = 0.0001856, x2 = 0.001798	0.9156
x1 = 0.0001914, x2 = 0.0001801	0.2061
x1 = 0.0001935, x2 = 0.001798	0.9166
x1 = 0.0002017, x2 = 0.001798	0.9175
x1 = 0.0002022, x2 = 0.0001801	0.2111
x1 = 0.0002098, x2 = 0.001798	0.9186
x1 = 0.0002138, x2 = 0.0001801	0.2164
x1 = 0.000218, x2 = 0.001798	0.9197
x1 = 0.0002251, x2 = 0.0001801	0.2214
x1 = 0.0002259, x2 = 0.001798	0.9207
x1 = 0.0002339, x2 = 0.001798	0.9217
x1 = 0.0002365, x2 = 0.0001801	0.2263
x1 = 0.000246, x2 = 0.0001801	0.2301
x1 = 0.000257, x2 = 0.0001801	0.2333
x1 = 0.0002685, x2 = 0.0001801	0.2357
x1 = 0.0002797, x2 = 0.0001801	0.2376
x1 = 0.0002912, x2 = 0.0001801	0.2394
x1 = 0.0003044, x2 = 0.0001801	0.2413
x1 = 0.000319, x2 = 0.0001801	0.2432
x1 = 0.0003359, x2 = 0.0001801	0.2454
x1 = 0.0003538, x2 = 0.0001801	0.2477
x1 = 0.0003736, x2 = 0.0001801	0.2502
x1 = 0.0003955, x2 = 0.0001801	0.2528
x1 = 0.0004254, x2 = 0.0001801	0.2566

CC[n+]1ccn(C)c1.N#C[S-] + [N-]=C=S.[NH4+]
100 kPa, x2 = 0
Settings	electrical conductivity [S/m]	viscosity [mPa·s]
323.15 K	4.38	11.49
348.15 K	–	6.87
353.15 K	–	6.17

CCCCn1n[n+](CC)c2ccccc21.F[P-](F)(F)(F)(F)F + c1c[nH]cn1
101.3 kPa, x2 = 0.6993
Settings	electrical conductivity [S/m]	viscosity [mPa·s]
343 K	1.1	11
353 K	1.4	7.7
363 K	1.8	5.6
373 K	2.2	5.2
383.1 K	2.9	4.2
393.1 K	3.2	3.6
403.1 K	3.8	3.1

CCCC[N+]1(C)CCCC1.N#C[C-](C#N)C#N + c1ccc2sccc2c1
101 kPa
Settings	viscosity [mPa·s]
308.15 K, x2 = 0	20.6
308.15 K, x2 = 0.5267	11.92
328.15 K, x2 = 0.5267	7.1
338.15 K, x2 = 0.3565	6.96

N#C[C-](C#N)C#N.OCC[n+]1ccccc1 + c1ccsc1
101 kPa
Settings	viscosity [mPa·s]
293.15 K, x1 = 0.7041	52.2
293.15 K, x1 = 1	137
298.15 K, x1 = 0.901	67.1
303.15 K, x1 = 0.4996	19.1
303.15 K, x1 = 0.901	50.9
318.15 K, x1 = 0.8044	21.1
323.15 K, x1 = 0.6	12.2
328.15 K, x1 = 0.7041	12.6
328.15 K, x1 = 0.901	17.9
333.15 K, x1 = 0.4996	7.57
333.15 K, x1 = 0.6	9.12
338.15 K, x1 = 0.4042	5.4
338.15 K, x1 = 0.4996	6.54
338.15 K, x1 = 0.7041	9.43
343.15 K, x1 = 0.4996	5.74
343.15 K, x1 = 0.8044	9.9
